Laboratory results: US9156872B2, “2′-azido substituted nucleoside derivatives and methods of use thereof for the treatment of viral diseases” (priority 2011, dated 2015)
Where two headings read alike, the source gives them in different places.

System: HCV replicon cells
Assay: Cell-based HCV replicon assay (replicon RNA by Taqman real time PCR)
Settings: read-out: 1b EC50
[1] = Hepatitis C virus, 72 h, HCV replicon 1b, cells harvested on day 3

`C[C@@]1(N=[N+]=[N-])[C@H](O)[C@@H](CO)O[C@H]1n1cnc2c(N3CCC3)nc(N)nc21` [Compound 137] was tested. Which EC50 [1] did it give?
Its EC50 is > 100 µM.

How did the EC50 (Hepatitis C virus, 72 h) turn out when `CCOC(=O)[C@H](C)NP(=O)(OC[C@H]1O[C@@H](n2ccc(=O)[nH]c2=O)[C@](C)(N=[N+]=[N-])[C@@H]1O)Oc1ccc(F)cc1` (some centres unmarked) [Compound 140] was run?
Its EC50 is 1.4 µM.

`C[C@H](NP(=O)(OC[C@H]1O[C@@H](n2ccc(=O)[nH]c2=O)[C@](C)(N=[N+]=[N-])[C@@H]1O)Oc1cccc2ccccc12)C(=O)OCc1ccccc1` (some centres unmarked) [Compound 230] was tested. Which EC50 (Hepatitis C virus, 72 h) did it give?
Its EC50 is 14 µM.

`CCOP1(=O)OC[C@H]2O[C@@H](n3ccc(=O)[nH]c3=O)[C@](C)(N=[N+]=[N-])[C@@H]2O1` (some centres unmarked) [Compound 567] was tested. Which EC50 (Hepatitis C virus, 72 h) did it give?
The EC50 was > 100 µM.

How did the EC50 [1] turn out when `COc1nc(N)nc2c1ncn2[C@@H]1O[C@@H]2COP(=O)(OC3CCCC3)O[C@H]2[C@@]1(C)N=[N+]=[N-]` (some centres unmarked) [Compound 105] was run?
Its EC50 is 17.1 µM.

Which EC50 (Hepatitis C virus, 72 h) does the source give for `CCOc1nc(N)nc2c1ncn2[C@@H]1O[C@H](COP(=O)(N[C@@H](C)C(=O)OC(C)C)Oc2ccc(Cl)c(Cl)c2)[C@@H](O)[C@@]1(C)N=[N+]=[N-]` (some centres unmarked) [Compound 348] here?
Its EC50 is 5 µM.

With `COc1nc(N)nc2c1ncn2[C@@H]1O[C@H](COP(=O)(N[C@@H](C)C(=O)OC2CCCCC2)Oc2ccccc2)[C@@H](O)[C@@]1(C)N=[N+]=[N-]` (single isomer, unassigned) [Compound 275] as the compound, how does the EC50 read?
The EC50 was 1.5 µM.

With `CCOc1nc(N)nc2c1ncn2[C@@H]1O[C@H](COP(=O)(N[C@@H](C)C(=O)OC(C)C)Oc2ccccc2Cl)[C@@H](O)[C@@]1(C)N=[N+]=[N-]` (some centres unmarked) [Compound 59] as the compound, how does the EC50 (Hepatitis C virus, 72 h) read?
The EC50 was 10 µM.

With `C[C@H](NP(=O)(OC[C@H]1O[C@@H](n2ccc(=O)[nH]c2=O)[C@](C)(N=[N+]=[N-])[C@@H]1O)Oc1ccccc1)C(=O)OCc1ccccc1` (single isomer, unassigned) [Compound 300] as the compound, how does the EC50 read?
The EC50 was 29 µM.

For `CCOc1nc(N)nc2c1ncn2[C@@H]1O[C@H](COP(=O)(N[C@@H](C)C(=O)OC(C)C)Oc2ccc(Cl)c(Cl)c2)[C@@H](O)[C@@]1(C)N=[N+]=[N-]` (single isomer, unassigned) [Compound 360], which EC50 is on record?
The EC50 was 4.8 µM.

With `COC(=O)[C@H](C)NP(=O)(OC[C@H]1O[C@@H](n2cnc3c(OC)nc(N)nc32)[C@](C)(N=[N+]=[N-])C1O)Oc1ccccc1` (single isomer, unassigned) [Compound 260] as the compound, how does the EC50 read?
Its EC50 is 3.6 µM.

How did the EC50 (Hepatitis C virus, 72 h) turn out when `CCOc1nc(N)nc2c1ncn2[C@@H]1O[C@H](COP(=O)(N[C@@H](C)C(=O)OC)Oc2cccc3ccccc23)[C@@H](O)[C@@]1(C)N=[N+]=[N-]` (some centres unmarked) [Compound 70] was run?
Its EC50 is 0.4 µM.

How did the EC50 turn out when `CCOc1nc(N)nc2c1ncn2[C@@H]1O[C@H](COP(=O)(N[C@@H](C)C(=O)OC(C)C)Oc2ccccc2Cl)[C@@H](O)[C@@]1(C)N=[N+]=[N-]` (single isomer, unassigned) [Compound 315] was run?
Its EC50 is 9.2 µM.

How did the EC50 (Hepatitis C virus, 72 h) turn out when `CCCCOC(=O)[C@H](C)NP(=O)(OC[C@H]1O[C@@H](n2ccc(N)nc2=O)[C@](C)(N=[N+]=[N-])[C@@H]1O)Oc1ccccc1` (some centres unmarked) [Compound 31] was run?
The EC50 was 4.9 µM.

For `CCOc1nc(N)nc2c1ncn2[C@@H]1O[C@H](COP(=O)(N[C@@H](C)C(=O)OC(C)C)Oc2ccc(F)cc2)[C@@H](O)[C@@]1(C)N=[N+]=[N-]` (some centres unmarked) [Compound 347], which EC50 (Hepatitis C virus, 72 h) is on record?
Its EC50 is 0.7 µM.

For `CCOc1nc(N)nc2c1ncn2[C@@H]1O[C@H](COP(=O)(N[C@@H](C)C(=O)OC2CCCCC2)Oc2ccc(Cl)cc2)[C@@H](O)[C@@]1(C)N=[N+]=[N-]` (single isomer, unassigned) [Compound 314], which EC50 is on record?
Its EC50 is 1.3 µM.

Which EC50 (Hepatitis C virus, 72 h) does the source give for `CCOc1nc(N)nc2c1ncn2[C@@H]1O[C@H](COP(=O)(N[C@@H](C)C(=O)OC)Oc2ccccc2Cl)[C@@H](O)[C@@]1(C)N=[N+]=[N-]` (single isomer, unassigned) [Compound 309] here?
The EC50 was 0.57 µM.

`COC(=O)[C@H](C)NP(=O)(OC[C@H]1O[C@@H](n2cnc3c(OC)nc(N)nc32)[C@](C)(N=[N+]=[N-])[C@@H]1O)Oc1ccccc1Cl` (single isomer, unassigned) [Compound 257] was tested. Which EC50 did it give?
Its EC50 is 0.7 µM.

`C[C@@]1(N=[N+]=[N-])[C@@H]2OP(=O)(OC3CCC3)OC[C@H]2O[C@H]1n1ccc(=O)[nH]c1=O` (some centres unmarked) [Compound 84] was tested. Which EC50 (HCV replicon 1b, cells harvested on day 3) did it give?
The EC50 was 51 µM.

For `CCOc1nc(N)nc2c1ncn2[C@@H]1O[C@H](COP(=O)(N[C@@H](C)C(=O)OC(C)C)Oc2ccc3c(c2)OCO3)[C@@H](O)[C@@]1(C)N=[N+]=[N-]` (some centres unmarked) [Compound 72], which EC50 (Hepatitis C virus, 72 h) is on record?
The EC50 was 0.8 µM.

`COC(=O)[C@H](C)NP1(=O)OC[C@H]2O[C@@H](n3ccc(N)nc3=O)[C@](C)(N=[N+]=[N-])[C@@H]2O1` (single isomer, unassigned) [Compound 529] was tested. Which EC50 [1] did it give?
The EC50 was 59 µM.

With `CCOC(=O)[C@H](C)NP(=O)(OC[C@H]1O[C@@H](n2cnc3c(OC)nc(N)nc32)[C@](C)(N=[N+]=[N-])[C@@H]1O)Oc1ccc(Cl)cc1` (single isomer, unassigned) [Compound 238] as the compound, how does the EC50 (Hepatitis C virus, 72 h) read?
Its EC50 is 1.2 µM.

How did the EC50 (Hepatitis C virus, 72 h) turn out when `CCCOC(=O)[C@H](C)NP(=O)(OC[C@H]1O[C@@H](n2ccc(=O)[nH]c2=O)[C@](C)(N=[N+]=[N-])[C@@H]1O)Oc1ccccc1` (some centres unmarked) [Compound 28] was run?
The EC50 was 2.3 µM.

With `COc1nc(N)nc2c1ncn2[C@@H]1O[C@H](COP(=O)(N[C@@H](C)C(=O)OC2CCCCC2)Oc2ccc(Cl)cc2)[C@@H](O)[C@@]1(C)N=[N+]=[N-]` (single isomer, unassigned) [Compound 272] as the compound, how does the EC50 (Hepatitis C virus, 72 h) read?
Its EC50 is 3.7 µM.

With `C[C@@]1(N=[N+]=[N-])[C@H](O)[C@@H](CO)O[C@H]1n1cnc2c(NC3CC3)nc(N)nc21` [Compound 138] as the compound, how does the EC50 [1] read?
The EC50 was > 100 µM.

With `COC(=O)[C@H](C)NP(=O)(OC[C@H]1O[C@@H](n2ccc(=O)[nH]c2=O)[C@](C)(N=[N+]=[N-])[C@@H]1O)Oc1ccccc1` (single isomer, unassigned) [Compound 159] as the compound, how does the EC50 read?
Its EC50 is 6.2 µM.

With `C[C@H](NP(=O)(OC[C@H]1O[C@@H](n2ccc(=O)[nH]c2=O)[C@](C)(N=[N+]=[N-])[C@@H]1O)Oc1ccccc1)C(=O)OCc1ccccc1` (some centres unmarked) [Compound 299] as the compound, how does the EC50 (Hepatitis C virus, 72 h) read?
The EC50 was 5.6 µM.

`C[C@H](NP(=O)(OC[C@H]1O[C@@H](n2ccc(=O)[nH]c2=O)[C@](C)(N=[N+]=[N-])[C@@H]1O)Oc1ccc2c(c1)OCO2)C(=O)OCc1ccccc1` (some centres unmarked) [Compound 305] was tested. Which EC50 (Hepatitis C virus, 72 h) did it give?
Its EC50 is 1.2 µM.

How did the EC50 [1] turn out when `CCCOP1(=O)OC[C@H]2O[C@@H](n3cnc4c(OCC)nc(N)nc43)[C@](C)(N=[N+]=[N-])[C@@H]2O1` (some centres unmarked) [Compound 24] was run?
Its EC50 is > 100 µM.

For `COc1nc(N)nc2c1ncn2[C@@H]1O[C@H](COP(=O)(N[C@@H](C)C(=O)OC2CCCCC2)Oc2ccc(F)cc2)[C@@H](O)[C@@]1(C)N=[N+]=[N-]` (single isomer, unassigned) [Compound 265], which EC50 is on record?
The EC50 was 2.5 µM.

How did the EC50 turn out when `C[C@H](NP(=O)(OC[C@H]1O[C@@H](n2ccc(=O)[nH]c2=O)[C@](C)(N=[N+]=[N-])[C@@H]1O)Oc1ccc2c(c1)OCO2)C(=O)OCc1ccccc1` (some centres unmarked) [Compound 306] was run?
The EC50 was 1.3 µM.

How did the EC50 turn out when `COC(=O)[C@H](C)NP(=O)(OC[C@H]1O[C@@H](n2ccc(=O)[nH]c2=O)[C@](C)(N=[N+]=[N-])[C@@H]1O)Oc1ccc(Cl)cc1` (single isomer, unassigned) [Compound 327] was run?
Its EC50 is 1.7 µM.

`CCCCOC(=O)[C@H](C)NP(=O)(OC[C@H]1O[C@@H](n2ccc(=O)[nH]c2=O)[C@](C)(N=[N+]=[N-])[C@@H]1O)Oc1ccc(Cl)cc1` (some centres unmarked) [Compound 369] was tested. Which EC50 (Hepatitis C virus, 72 h) did it give?
The EC50 was 0.5 µM.

`C[C@@]1(N=[N+]=[N-])[C@H](O)[C@@H](CO)O[C@H]1n1ccc(N)nc1=O` [Compound 1] was tested. Which EC50 [1] did it give?
The EC50 was 26 µM.

How did the EC50 (Hepatitis C virus, 72 h) turn out when `COC(=O)[C@H](C)NP(=O)(OC[C@H]1O[C@@H](n2ccc(N)nc2=O)[C@](C)(N=[N+]=[N-])[C@@H]1O)Oc1ccc(Cl)c(Cl)c1` (single isomer, unassigned) [Compound 343] was run?
Its EC50 is 61 µM.
